This passage reports Ki results from patent US8481738B2, “Gonadotropin-releasing hormone receptor antagonists and methods relating thereto” (Neurocrine Biosciences, Inc., priority 2007, dated 2013).

In the assay the target is T1, human GnRH receptor (Homo sapiens, UniProt P30968).
T1 construct: expressed in transfected cells; host or cells: RBL cells, stably transfected (in general)
T1 sequence (P30968 1-328): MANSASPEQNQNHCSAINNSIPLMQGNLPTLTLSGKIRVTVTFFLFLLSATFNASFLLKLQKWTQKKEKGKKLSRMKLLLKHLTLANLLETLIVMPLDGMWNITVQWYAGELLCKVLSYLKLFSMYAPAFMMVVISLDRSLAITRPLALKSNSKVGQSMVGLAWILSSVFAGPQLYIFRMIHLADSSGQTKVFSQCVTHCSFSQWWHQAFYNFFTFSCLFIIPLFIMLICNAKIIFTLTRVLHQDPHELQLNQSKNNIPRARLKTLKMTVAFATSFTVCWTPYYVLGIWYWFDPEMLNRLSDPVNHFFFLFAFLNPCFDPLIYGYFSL
In words: Peptide competition radioligand binding displacement assay, human GnRH receptor membranes. Particulars: one or more of the peptide competition human receptor binding assays. The method in brief: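 Membranes for radioligand binding were prepared from RBL cells stably expressing human GnRH receptor, which were lysed by nitrogen cavitation at 900 psi, 4° C. Membranes from HEK293 cells stably transfected with human receptor were held in 10 mM HEPES pH 7.5, 150 mM NaCl, 0.1% BSA. Transiently transfected COS-7 cells were used for other species.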
In general, Ki refers to the dissociation constant of the complex between target and ligand, obtained from inhibition or displacement. Read a high Ki as weaker binding. The compound `CN(C(=O)c1ccc(Cl)c(-c2cnc(C(F)(F)F)cc2C#N)c1)c1ccccc1OCCN1CCC[C@@H]1C(=O)O` [50-2] showed a Ki of at most 100 nM.
Compound `COc1cc(C)c(-c2cc(C(=O)N(C)c3c(C)cccc3OC)ccc2Cl)cn1` [2-26] gave a Ki of at most 100 nM.
The result for `Cc1cc(Cl)ncc1-c1cc(C(=O)N(C)c2ccccc2OCCCCC(=O)O)ccc1Cl` [4-5] reads at most 100 nM; that for `CN(C(=O)c1ccc(Cl)c(-c2cnc(C(F)(F)F)cc2C#N)c1)c1ccccc1OCCNC(=O)NS(C)(=O)=O` [41-1, 4-Chloro-3-(4-cyano-6-trifluoromethyl-pyridin-3-yl)-N-{2-[2-(3-methylsulfonyl-ureido)-ethoxy]-phenyl}-N-methyl-benzamide], at most 100 nM.
The result for `Cc1cccc(OCCCC(=O)O)c1N(C)C(=O)c1ccc(Cl)c(-c2cnc(C(F)(F)F)cc2C#N)c1` [4-11] reads at most 100 nM; that for `COc1ccccc1N(C)C(=O)c1ccc(Cl)c(-c2ncc(C)cc2C)c1` [2-60], at most 100 nM; that for `COc1ccccc1N(C)C(=O)c1cc(-c2cnc(C(F)(F)F)cc2C#N)c(Cl)cc1OCCc1ccccn1` [42-4], at most 100 nM.
`CN(C(=O)c1ccc(Cl)c(-c2nc3ccccc3cc2C#N)c1)c1ccccc1CCCC(=O)O` [15-1, 4-(2-{[4-Chloro-3-(3-cyano-quinolin-2-yl)-benzoyl]-methyl-amino}-phenyl)-butyric acid]: the Ki is at most 100 nM.
For the compound `CN(C(=O)c1cc(-c2cnc(C(F)(F)F)cc2C#N)c(Cl)cc1OCCCC(=O)O)c1ccccc1-c1ccco1` [34-16], the Ki is at most 100 nM.
For `CC(C)OC(=O)OC(C)OC(=O)CCOc1ccccc1N(C)C(=O)c1ccc(Cl)c(-c2cnc(C(F)(F)F)cc2C#N)c1` (stereo not drawn) [37-2, 3-(2-{[4-Chloro-3-(4-cyano-6-trifluoromethyl-pyridin-3-yl)-benzoyl]-methyl-amino}-phenoxy)-propionic acid 1-isopropoxycarbonyloxy-ethyl ester] the value was at most 100 nM.
For `COc1ccccc1N(C)C(=O)c1ccc(Cl)c(-c2ccc(Cl)cc2Cl)c1` [2-54] the value was at most 100 nM; for `Cc1cc(Cl)ncc1-c1cc(C(=O)N(C)c2ccccc2OCC(=O)O)ccc1Cl` [4-1, (2-{[4-Chloro-3-(6-chloro-4-methyl-pyridin-3-yl)-benzoyl]-methyl-amino}-phenoxy)-acetic acid], at most 100 nM; for `COc1cccc(C)c1N(C)C(=O)c1cc(-c2cnc(C(F)(F)F)cc2C#N)c(Cl)cc1OCCC(=O)O` [22-10], at most 100 nM.
With `COc1ccccc1N(C)C(=O)c1ccc(Cl)c(-c2cnc(C#N)cc2C)c1` [2-10, 4-chloro-3-(6-cyano-4-methyl-pyridin-3-yl)-N-(2-methoxy-phenyl)-N-methyl-benzamide], the Ki was at most 100 nM.
The result for `COc1cc(Cl)c(-c2cnc(C(F)(F)F)cc2C#N)cc1C(=O)N(C)c1c(OC)cccc1OC` [39-3] reads at most 100 nM.
Turning to `COc1ccccc1CN(C)C(=O)c1cc(-c2cnc(C(F)(F)F)cc2C#N)c(Cl)cc1OC` [39-17], the Ki was at most 100 nM.
The result for `Cc1cc(Cl)c(-c2cc(C(=O)N(C)c3cccc(C(F)(F)F)c3C)ccc2Cl)cn1` [2-24] reads at most 100 nM; that for `COC(=O)COc1ccccc1N(C)C(=O)c1ccc(Cl)c(-c2cnc(C#N)cc2C)c1` [3-3], at most 100 nM; that for `COc1ccccc1N(C)C(=O)c1ccc(Cl)c(-c2cnc(C)cc2Cl)c1` [2-8], at most 100 nM.
For `COc1cc(Cl)c(-c2cnc(C(F)(F)F)cc2C#N)cc1C(=O)N(C)c1ncccc1OC` [39-13] the value was at most 100 nM.
For `COC(=O)c1ccccc1N(C)C(=O)c1ccc(Cl)c(-c2ncc(C(F)(F)F)cc2Cl)c1` [2-75], the Ki is at most 100 nM.
For `COc1ccccc1N(C)C(=O)c1cc(-c2cnc(C(F)(F)F)cc2C#N)c(Cl)cc1OCCCNC(C)=O` [47-3] the value was at most 100 nM; for `CN(C(=O)c1ccc(Cl)c(-c2nc3ccccc3cc2C#N)c1)c1ccccc1OCCCO` [10-2, 4-chloro-3-(3-cyano-quinolin-2-yl)-N-[2-(3-hydroxy-propoxy)-phenyl]-N-methyl-benzamide], at most 100 nM.
`COc1ccccc1N(C)C(=O)c1cc(-c2cnc(C(F)(F)F)cc2C#N)c(Cl)cc1OCCCc1ccn(C)n1` [42-14] showed a Ki of at most 100 nM.
For `COC(=O)c1ccccc1N(C)C(=O)c1ccc(Cl)c(-c2ncc(C)cc2Cl)c1` [2-77] the value was at most 100 nM; for `CN(C(=O)c1ccc(Cl)c(-c2nc3c(F)c(F)c(F)c(F)c3cc2C#N)c1)c1ccccc1OCCCC(=O)O` [33-3], at most 100 nM.
The result for `COC(=O)COc1ccccc1N(C)C(=O)c1ccc(Cl)c(-c2cnc(C)cc2Cl)c1` [3-4] reads at most 100 nM; that for `Cc1cccc(C)c1N(C)C(=O)c1cc(-c2cnc(C(F)(F)F)cc2C#N)c(Cl)cc1OCCCC(=O)O` [22-4], at most 100 nM.
In turn, `CN(C(=O)c1ccc(Cl)c(-c2cnc(C(F)(F)F)cc2C#N)c1)c1ccccc1OCCc1nnn[nH]1` [45-1, 4-Chloro-3-(4-cyano-6-trifluoromethyl-pyridin-3-yl)-N-methyl-N-{2-[2-(1H-tetrazol-5-yl)-ethoxy]-phenyl}-benzamide] registered a Ki of at most 100 nM.
The result for `COc1cccc(N(C)C(=O)c2ccc(Cl)c(-c3ncc(Cl)cc3Cl)c2)c1` [19-9] reads at most 100 nM; that for `COc1ccc(Cl)cc1N(C)C(=O)c1cc(-c2cnc(C(F)(F)F)cc2C#N)c(Cl)cc1OCCCC(=O)O` [34-7], at most 100 nM.
In the case of `CN(C(=O)c1ccc(Cl)c(-c2cnc(C(F)(F)F)cc2C#N)c1)c1ccccc1OCCN1CCC[C@H]1C(=O)O` [50-3], the Ki is at most 100 nM.
In turn, `COc1ccccc1N(C)C(=O)c1cc(-c2cnc(C(F)(F)F)cc2C#N)c(Cl)cc1CC(=O)O` [44-1, {5-Chloro-4-(4-cyano-6-trifluoromethyl-pyridin-3-yl)-2-[(2-methoxy-phenyl)-methyl-carbamoyl]-phenyl}-acetic acid] gave a Ki of at most 100 nM.
In the case of `COCc1cc(Cl)ccc1N(C)C(=O)c1cc(-c2cnc(C(F)(F)F)cc2C#N)c(Cl)cc1OCCCC(=O)O` [34-9], the Ki was at most 100 nM.
For `COC(=O)CCCOc1c(F)cccc1N(C)C(=O)c1ccc(Cl)c(-c2cnc(C(F)(F)F)cc2C#N)c1` [3-12] the value was at most 100 nM; for `COc1cc(Cl)c(-c2cnc(C(F)(F)F)cc2C#N)cc1C(=O)N(C)Cc1ccccc1` [39-15], at most 100 nM; for `COc1cccc(C)c1N(C)C(=O)c1ccc(Cl)c(-n2c(C)cc(C(F)(F)F)nc2=O)c1` [30-10], at most 100 nM.
Compound `COc1ccccc1N(C)C(=O)c1cc(-c2cnc(C(F)(F)F)cc2C#N)c(Cl)cc1OCCCN1CCC[C@H]1C(=O)O` [49-1, (S)-1-(3-{5-Chloro-4-(4-cyano-6-trifluoromethyl-pyridin-3-yl)-2-[(2-methoxy-phenyl)-methyl-carbamoyl]-phenoxy}-propyl)-pyrrolidine-2-carboxylic acid] had a Ki of at most 100 nM.
For `CN(C(=O)c1cc(-c2cnc(C(F)(F)F)cc2C#N)c(Cl)cc1OCCCC(=O)O)c1ccccn1` [34-18] the value was at most 100 nM; for `COc1ccccc1N(C)C(=O)c1cc(-c2cnc(C(F)(F)F)cc2C#N)c(Cl)cc1OCCNC(C)=O` [47-1, 2-(2-Acetylamino-ethoxy)-4-chloro-5-(4-cyano-6-trifluoromethyl-pyridin-3-yl)-N-(2-methoxy-phenyl)-N-methyl-benzamide], at most 100 nM; for `COc1ccccc1N(C)C(=O)c1cc(-c2cnc(C(F)(F)F)cc2C#N)c(Cl)cc1OCCN1CCCC1=O` [42-1, 4-Chloro-5-(4-cyano-6-trifluoromethyl-pyridin-3-yl)-N-(2-methoxy-phenyl)-N-methyl-2-[2-(2-oxo-pyrrolidin-1-yl)-ethoxy]-benzamide], at most 100 nM.
The result for `CNCCOc1cc(Cl)c(-c2cnc(C(F)(F)F)cc2C#N)cc1C(=O)N(C)c1ccccc1OC` [42-17] reads at most 100 nM; that for `COc1ccccc1N(C)C(=O)c1cc(-c2cnc(C(F)(F)F)cc2C#N)c(Cl)cc1OCCCC(=O)O` [34-1, 4-{5-chloro-4-(4-cyano-6-trifluoromethyl-pyridin-3-yl)-2-[(2-methoxy-phenyl)-methyl-carbamoyl]-phenoxy}-butyric acid], at most 100 nM.
The result for `Cc1cc(Cl)c(-c2cc(C(=O)N(C)c3cccc(C)c3C)ccc2Cl)cn1` [2-22] reads at most 100 nM; that for `Cc1cccc(OCCCO)c1N(C)C(=O)c1ccc(Cl)c(-c2ccc(C(F)(F)F)cc2C#N)c1` [10-1, 4-Chloro-3-(2-cyano-4-trifluoromethyl-phenyl)-N-[2-(3-hydroxy-propoxy)-6-methyl-phenyl]-N-methyl-benzamide], at most 100 nM; that for `CN(C(=O)c1ccc(Cl)c(-c2cnc(C(F)(F)F)cc2C#N)c1)c1cccc(F)c1OCCCC(=O)O` [4-12], at most 100 nM.
On to `COc1ccccc1N(C)C(=O)c1cc(-c2cnc(C(F)(F)F)cc2C#N)c(Cl)cc1OCCCc1cnoc1` [46-1, 4-Chloro-5-(4-cyano-6-trifluoromethyl-pyridin-3-yl)-2-(3-isoxazol-4-yl-propoxy)-N-(2-methoxyphenyl)-N-methyl-benzamide], for which the Ki was at most 100 nM.
The compound `CN(C(=O)c1ccc(Cl)c(-c2ncc(C(F)(F)F)cc2Cl)c1)c1ccccc1F` [2-76] came in with a Ki of at most 100 nM.
The result for `CN(C(=O)c1ccc(Cl)c(-c2ncc(Cl)cc2Cl)c1)c1cccc(F)c1` [19-3] reads at most 100 nM; that for `COc1ccccc1N(C)C(=O)c1ccc(Cl)c(-c2nc(C)c(Cl)cc2Cl)c1` [2-80], at most 100 nM; that for `Cc1ccccc1N(C)C(=O)c1cc(-c2nc3ccccc3cc2C#N)c(Cl)cc1OCCCC(=O)O` [20-3], at most 100 nM.
